Experimental data as given in patent publication US20240091366A1, “NOVEL ACID-SENSITIVE APTAMER TRIPTOLIDE CONJUGATE AND APPLICATIONS” (priority 2022, published 2024).

Experiments:
[1] = tested on: lung cancer cell line A549; assay: In vivo antitumor activity, lung cancer xenograft in nude mice; set-up: species or system mouse; Tumor weight: unit not given here; settings: A549 model, once every 2 days, 8 doses
Description: The following are the in vivo activity studies conducted in different tumor-bearing mice:
A PBS negative control group was set up.

[2] = Body weight during administration, lung cancer model
Experimental: Experimental protocol: Female nude mice were reared for 6-7 weeks under standard environment, lung cancer cell line A549 were suspended in serum-free medium, and each mouse was inoculated with 6*10^6 tumor cells. When the tumor volume reached 50-100 mm^3, the mice were randomly divided into 4 groups, and were injected with aptamer triptolide conjugate, triptolide, and aptamer by tail vein, respectively, 12 mice in each group. A PBS negative control group was set up. […] The drugs were administered once every 2 days for 8 consecutive doses, and the experiment was ended 24 hours after the last dose. At the end of the experiment, the animals were executed by breaking the cervical vertebrae, and the tumors were stripped and weighed to calculate the tumor growth inhibition rate of the drug. The t-test was used to compare the tumor weight, tumor volume, RTV and other indexes of the animals in each group.

[3] = MTT assay, cytotoxicity on normal cells; format: cell-based, human; settings: 48 h
Experimental: The same materials as those in Part II above are not repeated here, in addition to the following: human normal hepatocytes LO2, human embryonic kidney cells HEK293 were purchased from the Shanghai Cell Bank of the Chinese Academy of Sciences and preserved in our laboratory.
Take the […] LO2 and HEK293 cell lines from the liquid nitrogen tank, place them in a 37° C. water bath, wait for the frozen cells to melt into cell suspension, centrifuge the cells at 1000 r/min for 3 min, discard the supernatant, add 1 ml of fresh complete medium containing 10% fetal bovine serum and 1% double antibody to mix the cells, then add 5 ml of medium, gently and repeatedly blowing the cells with a pipette gun to make them mix well. Then add 5 ml of medium, blow the cells gently and repeatedly with a pipette gun to mix them well, and finally transfer the cell suspension to a […] and label the cell name, cell number, date of resuscitation and the operator's name, and place it in a cell culture incubator for cultivation. (HEK293 cell line was cultured with DMEM medium, LO2 cell line was cultured with RPMI1640 medium)
Take LO2 and HEK293 cells with good growth status, remove the medium, add 1 ml of sterile PBS to wash, add 1.5 ml of trypsin to digest the cells, about 2 min later the cells become round and fall off, add 1.5 ml of medium to terminate the digestion, transfer it to centrifugal tube, centrifuge at 1000 r/min for 3 min, discard the supernatant, add 1 ml of fresh medium to resuspend, then add fresh medium for 1:3 distribution to other culture dishes, and label the date of transmission and the number of generations. Place in the cell culture incubator for cultivation.
Take LO2 and HEK293 cells with good growth status, by the same operation as the cell passaging experiment, after cell resuspension, cell counting with hemocyte counting plate, with 3000 cells/well, plant in 96-well plate, after 24 h of cell culture, remove the original medium, add medium containing different concentrations of drugs and continue to cultivate for 48 hours. After 24 h of cell culture, the original medium was removed and the medium containing different concentrations of drugs was added to continue the culture for 48 hours. […] The above steps were repeated three times.

[4] = tested on: tumor cells; settings: background art; cited from earlier work
[5] = background art; cited from earlier work

**Q.** Which results are given for `CC(C)[C@]12O[C@H]1[C@@H]1O[C@]13[C@]1(O[C@H]1C[C@H]1C4=C(CC[C@@]13C)C(=O)OC4)[C@@H]2O` [TP, Triptolide]?
**A.** RTV ([1]; 10 μM tail vein): 26.1 ± 0.09; T/C (%) ([1]; 10 μM tail vein): 51.81%; Tumor inhibition rate (%) ([1]; 10 μM tail vein): 27.27%; Tumor weight ([1]; 10 μM tail vein): 2.47 ± 0.08; RTV ([1]; 30 μM tail vein): 17.91 ± 0.27; T/C (%) ([1]; 30 μM tail vein): 31.59%; Tumor inhibition rate (%) ([1]; 30 μM tail vein): 48.48%; Tumor weight ([1]; 30 μM tail vein): 1.79 ± 0.19; RTV ([1]; 50 μM tail vein): 10.92 ± 0.15; T/C (%) ([1]; 50 μM tail vein): 89.93%; Tumor inhibition rate (%) ([1]; 50 μM tail vein): 63.64%; Tumor weight ([1]; 50 μM tail vein): 1.29 ± 0.27; body weights of mice ([2]; mouse, in vivo): basically maintained in the tolerable range of animal toxicity and side-effects; IC50 at 48 h ([3]; human, LO2 normal hepatocyte cells, normal hepatocytes LO2, MTT): 9.01 ± 0.25 nM; IC50 at 48 h ([3]; normal human embryonic kidney cells HEK293, MTT): 5.98 ± 0.21 nM; concentration effectively inhibiting the proliferation of tumor cells [4]: 2 to 10 ng/mL; solubility in water [5]: insoluble in water

**Q.** With “AS1411: nucleolin aptamer, single-stranded oligonucleotide, SEQ ID NO: 1 GGTGGTGGTGGTTGTGGTGGTGGTGG” as the molecule, how does the RTV ([1]; 10 μM tail vein) read?
**A.** The RTV was 34.57 ± 0.18.

**Q.** And the “T/C (%)” value ([1]; 10 μM tail vein)?
**A.** Its value is 89.93%.

**Q.** And the “Tumor inhibition rate (%)” value ([1]; 10 μM tail vein)?
**A.** Its value is 6.06%.

**Q.** And the Tumor weight ([1]; 10 μM tail vein)?
**A.** Its Tumor weight is 3.16 ± 0.13.

**Q.** And the RTV ([1]; 30 μM tail vein)?
**A.** The RTV was 31.09 ± 0.27.

**Q.** And the “T/C (%)” value ([1]; 30 μM tail vein)?
**A.** Its value is 75.76%.

**Q.** What about the “Tumor inhibition rate (%)” value ([1]; 30 μM tail vein) of the same molecule?
**A.** Its value is 15.15%.

**Q.** And the Tumor weight ([1]; 30 μM tail vein)?
**A.** Its Tumor weight is 2.88 ± 0.26.

**Q.** What about the RTV ([1]; 50 μM tail vein) of the same molecule?
**A.** The RTV was 26.19 ± 0.38.

**Q.** And the “T/C (%)” value ([1]; 50 μM tail vein)?
**A.** The value was 70.06%.

**Q.** What about the “Tumor inhibition rate (%)” value ([1]; 50 μM tail vein) of the same molecule?
**A.** The value was 21.21%.

**Q.** And the Tumor weight ([1]; 50 μM tail vein)?
**A.** Its Tumor weight is 2.61 ± 0.38.

**Q.** What about the “body weights of mice” value ([2]; A549 model, during 8 times of administration) of the same molecule?
**A.** The value was “basically maintained in the tolerable range of animal toxicity and side-effects”.
